Like-named read-outs stand apart in the source and are kept apart here.

The assay deals with PLK1 (Homo sapiens, UniProt P53350). As to the kind of experiment: PLK1 protein kinase assay (CDC25C phosphorylation, [γ-32P]-ATP). The format is biochemical. The following applies: for IC50: read-out: PLK1 IC50.
The mark [1] stands for this setting: Table 2, PLK1 IC50, class symbols.

Sequence of PLK1 (P53350 whole entry): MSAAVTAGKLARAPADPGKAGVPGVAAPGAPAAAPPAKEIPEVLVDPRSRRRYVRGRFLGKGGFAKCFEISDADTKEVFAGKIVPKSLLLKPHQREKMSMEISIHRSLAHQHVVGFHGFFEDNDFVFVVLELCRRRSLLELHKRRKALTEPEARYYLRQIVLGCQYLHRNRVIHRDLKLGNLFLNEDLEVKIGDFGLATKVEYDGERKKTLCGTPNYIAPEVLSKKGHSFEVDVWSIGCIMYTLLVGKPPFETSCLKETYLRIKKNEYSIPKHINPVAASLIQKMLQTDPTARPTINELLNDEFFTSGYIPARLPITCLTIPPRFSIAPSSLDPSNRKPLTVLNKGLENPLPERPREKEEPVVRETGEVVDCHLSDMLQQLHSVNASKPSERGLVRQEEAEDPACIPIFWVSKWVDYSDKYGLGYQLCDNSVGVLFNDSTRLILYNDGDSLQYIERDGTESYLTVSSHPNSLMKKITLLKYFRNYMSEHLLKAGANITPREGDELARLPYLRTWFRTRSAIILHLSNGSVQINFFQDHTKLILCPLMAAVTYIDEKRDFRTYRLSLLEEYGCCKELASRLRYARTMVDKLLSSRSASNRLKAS

Take `COc1cc(C(=O)NC2CN3CCC2CC3)ccc1Nc1ncc2c(n1)N(C1CCCC1)CC1(CC1)C(=O)N2C` (racemic) [Compound 186, (±)-4-(9′-cyclopentyl-5′-methyl-6′-oxo-5′,6′,8′,9′-tetrahydrospiro[cyclopropane-1,7′-pyrimido[4,5-b][1,4]diazepine]-2′-ylamino)-3-methoxy-N-(quinuclidin-3-yl)benzamide]: the IC50 is, setting by setting: under setting [1], < 100 nM; (Table 3) < 100 nM.

`COc1cc(C(=O)NC2CN3CCC2CC3)ccc1Nc1ncc2c(n1)N(C1CCCC1)CC(C)(C)C(=O)N2C` (racemic) [Compound 194, (±)-4-(9-cyclopentyl-5,7,7-trimethyl-6-oxo-6,7,8,9-tetrahydro-5H-pyrimido[4,5-b][1,4]diazepin-2-ylamino)-3-methoxy-N-(quinuclidin-3-yl)benzamide]: the IC50 was < 100 nM under setting [1] and < 100 nM (Table 3).

For `COc1cc(C(=O)NN2CCN(C)CC2)ccc1Nc1ncc2c(n1)N(C1CCCC1)CC(C)(C)C(=O)N2C` [Compound 195, 4-(9-Cyclopentyl-5,7,7-trimethyl-6-oxo-6,7,8,9-tetrahydro-5H-pyrimido[4,5-b][1,4]diazepin-2-ylamino)-3-methoxy-N-(4-methyl-piperazin-1-yl)-benzamide], the IC50 is, setting by setting: under setting [1], < 100 nM; (Table 3) < 100 nM.

Take `COc1cc(C(=O)NN2CCN(C)CC2)ccc1Nc1ncc2c(n1)N(C1CCCC1)CC1(CCC1)C(=O)N2C` [Compound 221, 4-(9′-cyclopentyl-5′-methyl-6′-oxo-5′,6′,8′,9′-tetrahydrospiro[cyclobutane-1,7′-pyrimido[4,5-b][1,4]diazepine]-2′-ylamino)-3-methoxy-N-(4-methylpiperazin-1-yl)benzamide]: the IC50 runs as follows: under setting [1], < 100 nM; (Table 3) < 100 nM.

Turning to `COc1cc(C(=O)NN2CCN(C)CC2)ccc1Nc1ncc2c(n1)N(C1CCCC1)CC1(CC1)C(=O)N2C` [Compound 254, 4-(9′-cyclopentyl-5′-methyl-6′-oxo-5′,6′,8′,9′-tetrahydrospiro[cyclopropane-1,7′-pyrimido[4,5-b][1,4]diazepine]-2′-ylamino)-3-methoxy-N-(4-methylpiperazin-1-yl)benzamide], the IC50 by setting is: under setting [1], < 100 nM; (Table 3) < 100 nM. Also, for the setting “Table 6”, the Ki was < 10 nM.

Take `COc1cc(C(=O)NC2CCN(C3CCOCC3)CC2)ccc1Nc1ncc2c(n1)N(C1CCCC1)CCC(=O)N2C` [Compound 345, 4-(9-Cyclopentyl-5-methyl-6-oxo-6,7,8,9-tetrahydro-5H-pyrimido[4,5-b][1,4]diazepin-2-ylamino)-3-methoxy-N-[1-(tetrahydro-pyran-4-yl)-piperidin-4-yl]-benzamide]: the IC50 is, setting by setting: under setting [1], < 100 nM; (Table 3) < 100 nM.

As to `COc1cc(C(=O)N[C@H]2CN3CCC2CC3)ccc1Nc1ncc2c(n1)N(C1CCCC1)CC1(CC1)C(=O)N2C` [Compound 347, (R)-4-(9′-cyclopentyl-5′-methyl-6′-oxo-5′,6′,8′,9′-tetrahydrospiro[cyclopropane-1,7′-pyrimido[4,5-b][1,4]diazepine]-2′-ylamino)-3-methoxy-N-(quinuclidin-3-yl)benzamide], the IC50 runs as follows: under setting [1], < 100 nM; (Table 3) < 100 nM.

In the case of `COc1cc(C(=O)N[C@@H]2CN3CCC2CC3)ccc1Nc1ncc2c(n1)N(C1CCCC1)CC1(CC1)C(=O)N2C` [Compound 348, (S)-4-(9′-cyclopentyl-5′-methyl-6′-oxo-5′,6′,8′,9′-tetrahydrospiro[cyclopropane-1,7′-pyrimido[4,5-b][1,4]diazepine]-2′-ylamino)-3-methoxy-N-(quinuclidin-3-yl)benzamide], the IC50 runs as follows: under setting [1], < 100 nM; (Table 3) < 100 nM.

The values above are taken from US8563542B2 (Cyclacel Limited, priority 2007, dated 2013).
